Measurements taken from patent publication US20110105436A1, “HETEROARYL COMPOUNDS, COMPOSITIONS, AND METHODS OF USE IN CANCER TREATMENT” (AUCKLAND UNISERVICES LIMITED, priority 2008, published 2011).
pIC50: −log10 of the molar value.

Key:
Type in all cases: cell-based
RCC4 cells = experiment: XTT assay in VHL-deficient RCC4 cells; conditions: Homo sapiens, 96 h; Table 1; XTT assay, VHL-deficient RCC4 cells, four days
Summary of the method: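 RCC4 cells with and without VHL seeded at 5000/well, then exposed next day to serially diluted compound (DMSO vehicle) for four days. Viability read by XTT (0.3 mg/ml) with PMS, 1-2 h at 37° C, absorbance at 450 nm.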

RCC4/VHL cells = experiment: XTT assay, RCC4/VHL versus RCC4 cells (selectivity ratio); conditions: for Ratio: Table 1, selectivity ratio, IC50 in RCC4/VHL cells/IC50 in RCC4 cells
Protocol: (§1) Cell Viability and XTT assays. For cell viability, 100,000 cells were plated in a 12-well plate. The following day, 1.25 μM STF-62247 was added in the presence or absence of 1 mM 3-MA for 24 hours at 37° C. Cells were trypsinized and counted by trypan blue exclusion. For XTT assays, 5000 RCC4 with and without VHL cells or 2,500 SN12C with and without VHL shRNA cells were plated in 96-well plates. The following day, vehicle (DMSO), STF-62247 or each of 19 analogs were added to media by serial dilution. Four days later, the media was aspirated and XTT solution containing 0.3 mg/ml of XTT (Sigma Chemical Co) in Phenol Red-free media, 20% FCS and 2.65 mg/ml N-methyl dibenzopyrazine methyl sulfate (PMS) was added to the cells and incubated at 37° C. for 1-2 hours. Metabolism of XTT was quantified by measuring the absorbance at 450 nm on a plate reader.
(§2) A. RCC4 and RCC4/VHL were treated with 1.25 μM of each 19 analogs for 20 hours and the presence of vacuoles was examined under light microscopy. B. Western blot for LC3 after treatment with each compound. Tubulin was used as loading control. Ratio is the relative from the IC50 in RCC4/VHL cells/IC50 in RCC4 cells. C. Acidic vesicle organelles (AVO) measured by FACS analysis in cells treated with 1.25 μM of STF-62247 or with compounds 21, 15, 25, 47, and 53 and stained with acridine orange.

LC3 = LC3 processing by Western blot and immunostaining; conditions: for toxicity, vacuole formation and LC3-lipidated form (autophagy) of analogs: 1.25 μM, 20 hours, FIG. 5A-B; for effect of inhibitor on vacuole formation and LC3-II induced by STF-62247: co-treatment with 1.25 μM STF-62247, 20 hrs, VHL-deficient RCC cells
Protocol: (§3) Western blot analysis. After treatments, cells were lysed in urea buffer (9M urea, 75 mM Tris (pH 7.5), 150 mM b-mercaptoethanol), placed on ice for 10 minutes and sonicated briefly (15 seconds). Extracts were centrifugated at 8,000×g for 10 minutes to eliminate insoluble material. Lysates were quantitated using Bio-Rad protein Assay (Bio-Rad Laboratories) and 20-30 μg of proteins were separated on a 7.5% or 15% bis-acrylamide gels and then transferred onto PVDF membranes. Proteins were visualized using HIF-2α (Novus Biological), HIF-1α, pVHL and BiP (BD Biosciences), LC3 (MBL), Atg5, or α-tubulin antibodies.
Immunofluorescence staining. Cells were seeded on glass coverslips and at subconfluence, STF-62247 was added at 1.25 μM for RCC4 and 3.75 μM for SN12C. After 20 hours, cells were fixed in 3.7% formaldehyde for 10 min at room temperature and washed in PBS. Then cells were permeabilized in 0.2% Triton X-100 for 5 min at room temperature and washed in PBS. The coverslips were incubated with primary antibody LC3 diluted 1:500 in PBS containing 0.2% BSA for 1 hour at room temperature. Cells were washed three times in PBS-BSA and the bound primary antibody was detected using a fluorescein-conjugated secondary antibody (ALEXA) diluted 1:500 in PBS-BSA and incubated for 1 hour. Coverslips were washed and mounted in mounting medium from Vector Laboratories according to the manufacturer's instructions. Cells were examined with a confocal microscope
A. Phase contrast pictures of VHL-deficient RCC4 and SN12C-VHL shRNA cells and VHL-positive cells RCC4 and SN12C after 20 hrs of 1.25 μM STF-62247. B. Immunostaining for LC3 following STF-62247 treatment at 1.25 μM for 20 hrs with or without 2 mM of 3-MA in RCC4 with and without VHL cells. After treatment, cells were fixed, permeabilized and processed for the detection of punctuate staining by indirect immunofluorescence. C. Autophagic vacuoles stained with monodansylcadaverine (MDC). After STF-62247 treatment in the same conditions, MDC was added for the last 10 minutes. Cells were fixed, washed with PBS and observed directly under microscope. D. Western blot for LC3 in RCC4, RCC4/VHL, SN12C, and SN12C-VHL shRNA cells after STF-62247 treatment with or without 3-MA. Nutrient starvation (EBSS) is used as positive control. E. Western blot for LC3 in RCC4 and RCC4/VHL with different concentrations of STF-62247. Tubulin was used as loading control. F. Cell viability assay in VHL-deficient RCC4 and wild-type VHL cells treated with 1 mM of 3-MA, 1.25 μM of STF-62247 alone or in combination for 24 hrs. Viability is measured by trypan blue exclusion assay and is represented by the average of three different experiments in duplicate as the percent of treated on untreated cells. The error bars are represented as SEM.
(§4) A. VHL-deficient RCC4 and wild-type VHL were incubated in presence of 10 μM LY294002, or 1 μg/mlBrefeldin A with 1.25 μM of STF-62247 for 20 hrs and the presence of vacuoles was examined under light microscopy. B,C. LC3 processing was evaluated by Western blot after the treatment with Brefeldin A or LY294002 in presence or absence of STF-62247 as described above. Tubulin was used as loading control. D. Cells were treated with 1.25 μM of STF-62247 with or without 2 mM of 3-MA, 1 μg/ml of Brefeldin A for 20 hrs. For the last 15 min, acidic components were stained with 1 μg/ml of acridine orange and visualized under fluorescence microscope. […] F. Quantification of the FACS analysis. The data are calculated as the average of three different experiments as relative units of treated over untreated cells. The error bars are represented as the standard error of the mean (SEM).
B,C. LC3 processing was evaluated by Western blot after the treatment with U0126 or tunicamycin in presence or absence of STF-62247 as described above. Tubulin was used as loading control.

[1] = tested on: RCC4, RCC4/VHL, SN12C and SN12C-VHL shRNA cells; experiment: Acidic vesicle organelles with acridine orange (FACS); conditions: for acridine orange staining / amount of AVOs: 1.25 μM, VHL-deficient versus wild-type VHL cells; for effect of inhibitor on autolysosomal acidification induced by STF-62247: 2 mM 3-MA or 1 μg/ml Brefeldin A with 1.25 μM STF-62247, 20 hrs
Protocol: Quantification of Acidic Vesicle Organelles with Acridine Orange. In acridine orange-stained cells, the cytoplasm and nucleus are bright green and dim red, whereas acidic compartments are bright red. The intensity of the red fluorescence is proportional to the degree of acidity. Following 20 hours of treatment with STF-62247 or analogs, cells were stained with 1 μg/ml of acridine orange for 15 min. Cells were trypsinized and then analyzed by flow cytometry using FACScan cytometer and CellQuest software.
as §4, §2

[2] = tested on: VHL-deficient RCC4 and wild-type VHL cells; experiment: Cell viability by trypan blue exclusion; conditions: 1 mM 3-MA, 1.25 μM STF-62247, 24 hours, FIG. 2F
Protocol: as §1
A. Phase contrast pictures of VHL-deficient RCC4 and SN12C-VHL shRNA cells and VHL-positive cells RCC4 and SN12C after 20 hrs of 1.25 μM STF-62247. B. Immunostaining for LC3 following STF-62247 treatment at 1.25 μM for 20 hrs with or without 2 mM of 3-MA in RCC4 with and without VHL cells. […] Viability is measured by trypan blue exclusion assay and is represented by the average of three different experiments in duplicate as the percent of treated on untreated cells. […]

BiP (Grp78) = experiment: Western blot for BiP (ER stress); conditions: 2 μg/ml tunicamycin, FIG. 9C
Protocol: as §3
B,C. LC3 processing was evaluated by Western blot after the treatment with U0126 or tunicamycin in presence or absence of STF-62247 as described above. Tubulin was used as loading control. D. FACS analysis to measure the acidic vesicle organelles after staining with acridine orange in SN12C and SN12C-VHL shRNA following treatment with STF-62247 for 24 hours. E. AVO quantification from the FACS analysis in A. F. Autophagic vacuoles stained with MDC. After STF-62247 treatment with or without 3-MA, NH4Cl, MDC was added the last 10 minutes. Then, cells were fixed, washed with PBS and observed directly under microscope.

Molecule | pIC50 (RCC4 cells) | Ratio (RCC4/VHL cells) | toxicity, vacuole formation and LC3-lipidated form (autophagy) of analogs (LC3) | acridine orange staining / amount of AVOs [1] | IC50 ratio (wild-type VHL/VHL-deficient cells) (RCC4/VHL cells; structure-activity text on Tables 1 and 2) | effect of inhibitor on vacuole formation and LC3-II induced by STF-62247 (LC3) | effect of inhibitor on autolysosomal acidification induced by STF-62247 [1] | viability of VHL-deficient cells treated with STF-62247 in presence of inhibitor [2] | BiP (Grp78), marker of ER stress (BiP (Grp78))
COc1cccc(Nc2nc(-c3ccncc3)cs2)c1 [Compound 15, N-(3-Methoxyphenyl)-4-(4-pyridinyl)-1,3-thiazol-2-amine] | 5.52 | 17 | induced significant vacuole formation and the LC3-lipidated form | consistertly higher in VHL-deficient cells | – | – | – | – | –
Cc1ccc(Nc2nc(-c3ccncc3)cs2)cc1 [Compound 21, N-(4-Methylphenyl)-4-(4-pyridinyl)-1,3-thiazol-2-amine] | 5.60 | 20 | induced significant vacuole formation and the LC3-lipidated form | consistertly higher in VHL-deficient cells | high ratio | – | – | – | –
Cc1cc(Nc2nc(-c3ccncc3)cs2)ccc1O [Compound 53, 2-Methyl-4-{[4-(4-pyridinyl)-1,3-thiazol-2-yl]amino}phenol] | 4.15 | 2.3 | no toxicity or autophagy were observed | not influenced | – | – | – | – | –
Oc1cccc(Nc2nc(-c3ccncc3)cs2)c1 [Compound 13, 3-{[4-(4-Pyridinyl)-1,3-thiazol-2-yl]amino}phenol] | 4.55 | >3 | no toxicity or autophagy were observed | not influenced | – | – | – | – | –
Cn1cnc(N)c2ncnc1-2 [Compound 3-MA, 3-methyladenine, reference compound] | – | – | – | – | – | abrogated | resulted in a decrease in autolysosomal acidification | partially restored | –
tunicamycin [reference compound] | – | – | – | – | – | no vacuole or LC3 processing was observed | – | – | induced BiP (Grp78)
C[C@H]1CCC/C=C/[C@@H]2C[C@H](O)C[C@H]2[C@H](O)/C=C/C(=O)O1 [Brefeldin A, reference compound] | – | – | – | – | – | abolished the formation of autophagic vacuoles and LC3-II | resulted in a decrease in autolysosomal acidification | – | –
Oc1ccc(Nc2nc(-c3ccncc3)cs2)cc1 [Compound 25, 4-{[4-(4-Pyridinyl)-1,3-thiazol-2-yl]amino}phenol] | 5.28 | 8 | induced significant vacuole formation and the LC3-lipidated form | consistertly higher in VHL-deficient cells | – | – | – | – | –
